One assay has as its system C. albicans. Briefly: In vitro antifungal activity, MIC by serial agar dilution method (C. albicans). Conditions: Sabouraud dextrose agar, 44 hours at 28° C.; for MIC: Candida albicans. The format is cell-based. The method, then:
(§1) Antifungal activities of representative compounds of the present invention were evaluated both in vitro and in vivo. The minimum inhibitory concentrations (MICs) against various fungi were determined by serial agar dilution method using Sabouraud dextrose agar. Thus, approximately 0.003 ml of fungal suspension containing 10^6 cells/ml was applied to the surface of agar plates containing the test antibiotics. The MIC values recorded after the cultures had been incubated for 44 hours at 28° C. are set forth below in Table I.
Background: In agar dilution, organisms are placed on agar that contains the substance at set levels.

Another assay concerns C. neoformans. Briefly: In vitro antifungal activity, MIC by serial agar dilution method (C. neoformans). As to conditions: Sabouraud dextrose agar, 44 hours at 28° C.; for MIC: Cryptococcus neoformans. It is filed as cell-based. The method, then:
as §1

The test system of another assay is A. fumigatus. Briefly: In vitro antifungal activity, MIC by serial agar dilution method (A. fumigatus). The format is cell-based. As to conditions: Sabouraud dextrose agar, 44 hours at 28° C.; for MIC: Aspergillus fumigatus. How it is done: as §1
The test system of another assay is T. mentagrophytes. Briefly: In vitro antifungal activity, MIC by serial agar dilution method (T. mentagrophytes). As to conditions: Sabouraud dextrose agar, 44 hours at 28° C.; for MIC: Trichophyton mentagrophytes. It is filed as cell-based. The method, then:
as §1

Assay [1] deals with calcium ion and calmodulin-dependent cyclic nucleotide phosphodiesterase. As to conditions: cited from earlier work.
A further assay deals with Candida albicans A9540. Briefly: In vivo activity against Candida albicans A9540 infection in mice. Conditions: A9540, 480 h, male ICR mice, intravenous just after i.v. infection, survival on 20th day, read-out: PD50 (dose that protects 50% of the animals from infection). The method, then: In vivo activity of compounds of the present invention was tested against Candida albicans A9540 infection in mice. Test organisms were cultured for 18 hours at 28° C. in YGP medium (yeast extract, glucose, peptone, K2 HPO4, MgSO4) and then suspended in saline. Male ICR mice weighing 20 to 24 g were infected intravenously with about 10 times the median lethal dose of the test fungus. The antibiotic at various dose levels was administered to groups of 5 mice each intravenously just after the fungal infection. The dose that protects 50% of the animals from infection (PD50, mg/kg) was calculated from survival rates recorded on the 20th day after the fungal challenge. All control animals died within 7 to 15 days after infection. The PD50 for compounds of Examples 2, 4, and 5 are 18 mg/kg, 11 mg/kg and 8.8 mg/kg, respectively.

Values after ≈ are worked out from the molar mass of the structure shown.

By MIC is commonly meant the lowest concentration that inhibits growth of the organism. Lower therefore signals greater potency. For the molecule `CN[C@@H]1[C@H](O[C@@H]2OC[C@@H](O)[C@H](O)[C@H]2O)[C@@H](O)[C@H](O[C@H]2c3cc(C)c(C(=O)N[C@H](C)C(=O)NN)c(O)c3-c3c(cc4c(c3O)C(=O)c3cc(OC)cc(O)c3C4=O)[C@@H]2O)O[C@@H]1C` [Example 3, Pradimicin A Hydrazide], the MIC in the assay with C. albicans turned out to be 50 µg/mL (≈ 58.5 µM); in the assay on C. neoformans, 3.1 µg/mL (≈ 3.63 µM); against A. fumigatus it was 25 µg/mL (≈ 29.2 µM); with T. mentagrophytes it was 25 µg/mL (≈ 29.2 µM).

Regarding Pradimicin A Butylamide [Example 6], the “MIC C. albicans” value in the assay with C. albicans stood at 100 µg/mL. In addition, the “MIC C. neoformans” value with C. neoformans was found to be 3.1 µg/mL. Moreover, the “MIC A. fumigatus” value in the assay with A. fumigatus was 50 µg/mL. The “MIC T. mentagrophytes” value with T. mentagrophytes was determined as 100 µg/mL.

Turning to `CC(=O)Cc1cc2c(c(O)c1C(=O)O)-c1cc3c(c(O)c1CC2)C(=O)c1c(O)cc(O)cc1C3=O` [KS-619-1], the “inhibitor of calcium ion and calmodulin-dependent cyclic nucleotide phosphodiesterase” value in assay [1] was “inhibitor”.

`CN[C@@H]1[C@H](O[C@@H]2OC[C@@H](O)[C@H](O)[C@H]2O)[C@@H](O)[C@H](O[C@H]2c3cc(C)c(C(=O)N[C@H](C)C(N)=O)c(O)c3-c3c(cc4c(c3O)C(=O)c3cc(OC)cc(O)c3C4=O)[C@@H]2O)O[C@@H]1C` [Example 4, Pradimicin A Amide]: the MIC against C. albicans turned out to be 6.3 µg/mL (≈ 7.5 µM); with C. neoformans, 1.6 µg/mL (≈ 1.91 µM); against A. fumigatus, 6.3 µg/mL (≈ 7.5 µM); against T. mentagrophytes it was 12.5 µg/mL (≈ 14.9 µM). For the same molecule, the ED50 in the assay with Candida albicans A9540 turned out to be 11 mg/kg.

`CN[C@@H]1[C@H](O[C@@H]2OC[C@@H](O)[C@H](O)[C@H]2O)[C@@H](O)[C@H](O[C@H]2c3cc(C)c(C(=O)N[C@H](C)C(=O)N[C@H](C)C(=O)O)c(O)c3-c3c(cc4c(c3O)C(=O)c3cc(OC)cc(O)c3C4=O)[C@@H]2O)O[C@@H]1C` [Example 1, D-alanyl Pradimicin A]: the MIC in the assay on C. albicans was 25 µg/mL (≈ 27.4 µM); in the assay on C. neoformans, 6.3 µg/mL (≈ 6.91 µM); in the assay on A. fumigatus, greater than 100 µg/mL; against T. mentagrophytes, greater than 100 µg/mL.

In the case of `CNC(=O)[C@@H](C)NC(=O)c1c(C)cc2c(c1O)-c1c(cc3c(c1O)C(=O)c1cc(OC)cc(O)c1C3=O)[C@H](O)[C@H]2O[C@@H]1O[C@H](C)[C@H](NC)[C@H](O[C@@H]2OC[C@@H](O)[C@H](O)[C@H]2O)[C@H]1O` [Example 5, Pradimicin A Methylamide], the MIC was found to be 6.3 µg/mL (≈ 7.38 µM) against C. albicans, 1.6 µg/mL (≈ 1.87 µM) against C. neoformans, 6.3 µg/mL (≈ 7.38 µM) in the assay on A. fumigatus and 6.3 µg/mL (≈ 7.38 µM) in the assay on T. mentagrophytes. For the same molecule, the ED50 in the assay with Candida albicans A9540 is 8.8 mg/kg.

Turning to `CN[C@@H]1[C@H](O[C@@H]2OC[C@@H](O)[C@H](O)[C@H]2O)[C@@H](O)[C@H](O[C@H]2c3cc(C)c(C(=O)N[C@H](C)C(=O)NCC(=O)O)c(O)c3-c3c(cc4c(c3O)C(=O)c3cc(OC)cc(O)c3C4=O)[C@@H]2O)O[C@@H]1C` [Example 7, Glycyl Pradimicin A], the MIC in the assay with C. albicans was greater than 50 µg/mL; in the assay on C. neoformans, 12.5 µg/mL (≈ 13.9 µM); against A. fumigatus it was greater than 50 µg/mL; against T. mentagrophytes, greater than 50 µg/mL.

`CN[C@@H]1[C@H](O[C@@H]2OC[C@@H](O)[C@H](O)[C@H]2O)[C@@H](O)[C@H](O[C@H]2c3cc(C)c(C(=O)N[C@H](C)C(=O)N(C)C)c(O)c3-c3c(cc4c(c3O)C(=O)c3cc(OC)cc(O)c3C4=O)[C@@H]2O)O[C@@H]1C` [Example 2, Pradimicin A Dimethylamide]: the MIC in the assay with C. albicans came to 12.5 µg/mL (≈ 14.4 µM); against C. neoformans it was 1.6 µg/mL (≈ 1.84 µM); against A. fumigatus, 6.3 µg/mL (≈ 7.26 µM); with T. mentagrophytes, 12.5 µg/mL (≈ 14.4 µM). Also, in the assay on Candida albicans A9540, the ED50 was 18 mg/kg.

Source of the values: patent publication US5053395A, “Pradimicin amide derivatives” (Bristol-Myers Company, priority 1989, dated 1991).
